Series [1] has as its system interleukin-13 (IL-13). The experiment in a line: Inflammatory cytokine expression in skin tissue of oxazolone model (qPCR), IL-13. Format: in vivo, mouse. Particulars: group treated with both colchicine (0.05%) and oxazolone, compared with oxazolone treatment, FIG. 5. On the procedure: (§1) Specifically, 150 μl of 3% 4-ethoxymethylene-2-phenyl-2-oxazolin-5-one (oxazolone) was applied on an abdominal skin of a 6-week-old laboratory animal to induce an immune response, and 20 μl of the same compound diluted to 0.1% was applied on the ear of a laboratory animal 3 times a week (total 6 times) to induce a skin disease. The ear of the laboratory animal was treated with 20 μl of the colchicine according to the present invention at a concentration of 0.05% 3 times a week (total 6 times). A negative control group treated with only ethanol which was a solvent and a positive control group treated with only oxazolone were also reflected in the experiment. The number of mice in each experiment group was maintained at 10 or more and the experiment was repeated 3 times.
(§2) After completing the application experiment of Example 2, a skin tissue was collected from each mouse and crushed with a tissue crusher to extract RNA. The crushed tissue powder was dissolved in a Trizol reagent solution (Sigma) and RNA was extracted using a RNeasy mini kit (Qiagen). The extracted RNA was reverse-transcribed to cDNA using ImProm-II™ Reverse Transcription kit (Promega), and then a cytokine degree present in the skin tissue was measured by a quantitative PCR (qPCR) method using CFX96™ Real-Time PCR Detection System (Bio-Rad). […]

Series [2] relates to interleukin-4 (IL-4). Nature of the series: Inflammatory cytokine expression in skin tissue of oxazolone model (qPCR), IL-4. Format: in vivo, mouse. Particulars: group treated with both colchicine (0.05%) and oxazolone, compared with oxazolone treatment, FIG. 5. On the procedure:
as §1, §2

Series [3] relates to filaggrin. The experiment in a line: Filaggrin expression in mouse skin tissue after colchicine application (qPCR). Format: in vivo, mice. Particulars: 0.04% (w/w) and 0.1% (w/w) applied on back and ear skin twice a week for 4 weeks or more, FIG. 1. On the procedure:
Specifically, colchicine was continuously applied on back and ear skin areas of laboratory mice at a low concentration of 0.04% (w/w) and at a high concentration of 0.1% (w/w) twice a week for 4 weeks or more. After completing the application experiment, a skin tissue was collected from each mouse and crushed with a tissue crusher to extract RNA. The crushed tissue powder was dissolved in a Trizol reagent solution (Sigma) and RNA was extracted using a RNeasy mini kit (Qiagen). The extracted RNA was reverse-transcribed to cDNA using IMPROM-II™ Reverse Transcription kit (Promega), and then an amount of filaggrin present in the skin tissue was measured by a quantitative PCR (qPCR) method using CFX96™ Real-Time PCR Detection System (Bio-Rad).
In general terms: Quantitative PCR measures a nucleic acid by following its amplification.

The subject of series [4] is allergic skin disease model (atopic dermatitis model) mouse derived by oxazolone. The experiment in a line: Oxazolone-derived allergic skin disease (atopic dermatitis) model mouse: naked-eye observation and Hematoxylin and Eosin staining of ear skin. Format: in vivo. As to the method:
as §1
In addition, for pathological observation of skin after completing the application, an ear skin tissue of each mouse was collected and stained with Hematoxylin and Eosin, and the results are shown in FIG. 4.

Series [5] can be described thus: Moisture loss, skin barrier index and composite index by transdermal moisture loss meter (Tewameter). Format: in vivo, mice. As to the method: Colchicine was continuously applied on back and ear skin areas of laboratory mice at concentration of 0.05% (w/w) twice a week for 4 weeks or more, and then a moisture loss and skin barrier and composite indexes were measured by a transdermal moisture loss meter (Tewameter).
The experiment results are shown in FIG. 2, and were compared with an experiment animal group with no colchicine applied.

[6] abbreviates: 20 μl of 0.05% colchicine on ear, total 6 times, with oxazolone treatment, H&E staining of ear skin, FIG. 4.
The mark [7] stands for this setting: 0.05% (w/w) on back and ear skin twice a week for 4 weeks or more, Tewameter, vs group with no colchicine applied, FIG. 2.

The structures appear in SMILES notation.

With `COc1cc2c(c(OC)c1OC)-c1ccc(OC)c(=O)cc1[C@@H](NC(C)=O)CC2` [colchicine], in series [1], the “expression level of IL-13 in skin tissue” value was at most 50%. Moreover, the “expression level of IL-4 in skin tissue” value in series [2] is at most 50%. In addition, the “expression amount of filaggrin” value in series [3] is on record as “increased an expression amount of filaggrin concentration-dependently”. For the same compound, the “skin condition observed with the naked eye (ear)” value in series [4] (20 μl of 0.05% colchicine on ear 3 times a week (total 6 times), simultaneously with oxazolone, FIG. 3) is “very similar to that of a normal group treated with only a solvent”. In series [4] (setting [6]), the epithelial thickness result is listed as “decreased to a degree very similar to the normal case” and the total skin thickness result is recorded as “decreased to a degree very similar to the normal case”. For the same compound, the skin abnormal symptom result in series [4] (control group treated with only colchicine, H&E staining of ear skin) is listed as “not detected”. For the same compound, in series [5] (setting [7]), the skin barrier index entry is “greatly increased”, the skin composite index entry is on record as “greatly increased” and the skin moisture loss result is recorded as “decreased”. In addition, the “side effect with long-term application” value in series [5] (skin application to mice for 4 weeks or more) is recorded as “without any side effect”.

Values taken from patent publication US20220151959A1, “METHOD FOR TREATING ALLERGIC SKIN DISEASE OR PRURITUS CUTANEOUS” (KOREA RESEARCH INSTITUTE OF BIOSCIENCE AND BIOTECHNOLOGY, priority 2019, published 2022).
